Here are results for one compound from PMC12132910, “A Novel Inhibitor against the Bromodomain Protein 1 of the Malaria Pathogen Plasmodium Falciparum” (Chemmedchem, 2025).

Each structure is given as a SMILES string.

A word on the EC50: it is the concentration needed to bring the measured effect to its halfway point.

Assay [1] deals with 3D7::PfBDP1HADD parasites. Description: Dose-response assay in conditional PfBDP1 knockdown parasites. Particulars: 10 nM Shld1 compared to 500 nM Shld1, 72 h. The class given is cell-based, Plasmodium falciparum. The text has this: To validate whether the compounds indeed target the BRD of PfBDP1, we utilized a conditional KD system to modulate the expression levels of PfBDP1 in situ.^[ [15] ^] In the 3D7::PfBDP1HADD line, PfBDP1 is fused at its C‐terminus to a ligand‐regulatable FKBP destabilization domain (DD) that targets the fusion protein for proteasomal degradation but can be stabilized by the Shield1 ligand, and 3xHA epitope tags for detection ^11. […] In contrast, the EC50 of chloroquine was unchanged.
A) Western Blot analysis of 3D7::PfBDP1HADD parasites cultivated in the presence of Shield1 (Shld) in concentrations ranging from 0 to 500 nM over 72 h in duplicates. PfBDP1HADD was detected by anti‐HA antibodies. Histone 3 (H3) was probed as a loading control. […] Growth was determined relative to DMSO controls for each condition after 72 h of culture. N = 4 replicates. […] Binding of PfBDP1HA to target loci was calculated as enrichment relative to histone H3 ChIP performed in parallel. Shown are individual values and median of one representative experiment with technical duplicates. Paired t‐test, p = 0.0015. […]
resistant strain K1, MRA-159, contributed by Dennis E. Kyle. The NF54::PfBDP1HA parasite line was generated by transfection of NF54 parasites with the plasmid pSLI_PfBDP1_3xHA and selection linked integration of the construct in the presence of G418[21]. […]
(§1) Malaria SYBR green I based fluorescence assay
SYBR Green I based fluorescence assays to determine dose-response curves were performed essentially as described previously (Leidenberger et al., 2017). […] After 72 hours, cultures were lysed in lysis buffer (20 mM Tris-HCl, 5 mM EDTA, 0.008% saponin (Sigma-Aldrich), 0.08% Triton X (Sigma-Aldrich), 1:10,000 SYBR Green I dye (Invitrogen)) and fluorescence was measured in a Fluoroskan Ascent FL reader (excitation: 485 nm, emission: 530 nm). […]

Assay [2] relates to P. falciparum NF54. Briefly: Growth of synchronous ring-stage cultures under treatment, NF54. The class given is cell-based, Plasmodium falciparum. Particulars: 48 h of treatment.
Assay [3] relates to P. falciparum 3D7. Description: Growth of synchronous ring-stage cultures under treatment, 3D7. The class given is cell-based, Plasmodium falciparum. To be noted: 3D7, synchronous ring stage, 48 h of treatment.
The subject of assay [4] is P. falciparum NF54. Briefly: Malaria SYBR green I based fluorescence assay, dose response, NF54. The class given is cell-based. Particulars: Plasmodium falciparum, blood stage culture, 72 hours, mean (SD), 1 to 3 biological replicates. The method, then: (§2) The BRDi compounds had modest activity against all three strains (Table 2 ). […]
(§3) Shield1. Parasites were propagated in human red blood cells (blood group 0+) obtained from the Bavarian Red Cross service (BRK) and cultivated under standard conditions in RPMI 1640 (ThermoFisher) supplemented with 0.5% Albumax
(§4) (ThermoFisher), 20 µg/ml Gentamycin, 25 mM Hepes (pH 7.3), and 0.02% hypoxanthine in an atmosphere of 1% O2, 5% CO2, 94% N2.
as §1
(§5) SYBR Green I based fluorescence assays to determine dose-response curves were performed essentially as described previously (Leidenberger et al., 2017). Briefly, parasite cultures were diluted to 1% ring stage parasitemia and cultivated at 2.5% haematocrit in 96 well plates in the presence of serial half-log dilutions of the compounds ranging from 100 µM to 10 nM or DMSO (dimethyl sulfoxide) corresponding to the highest concentration (0.1%). Chloroquine (C6628, Sigma-Aldrich) was used as control that was not expected to target PfBDP1 and was titrated from 5 µM to 1.6 nM. After 72 hours, cultures were lysed in lysis buffer (20 mM Tris-HCl, 5 mM EDTA, 0.008% saponin (Sigma-Aldrich), 0.08% Triton X (Sigma-Aldrich), 1:10,000 SYBR Green I dye (Invitrogen)) and fluorescence was measured in a Fluoroskan Ascent FL reader (excitation: 485 nm, emission: 530 nm). […]

Assay [5] has as its system P. falciparum blood stage parasites. Description: Morphology and stage progression of treated synchronous parasites. It counts as cell-based, Plasmodium falciparum.
In assay [6] the test system is P. falciparum K1 (multidrug resistant). Description: Malaria SYBR green I based fluorescence assay, dose response, K1. To be noted: Plasmodium falciparum, K1, 72 h, read-out: EC50 K1. It counts as cell-based. Here is the method: as §2
resistant strain K1, MRA-159, contributed by Dennis E. Kyle. […]
as §3, §4, §1, §5

Assay [7] relates to P. falciparum 3D7. Description: Malaria SYBR green I based fluorescence assay, dose response, 3D7. It counts as cell-based. Particulars: Plasmodium falciparum, blood stage culture, 72 hours, mean (SD), 1 to 3 biological replicates. The method, then:
as §2, §3, §4, §1, §5

Turning to `Cc1cc(C(N)=O)ccc1-c1[nH]c(C)c2c1CCCCC2=O` [RMM23, 3-Methyl-4-(3-methyl-4-oxo-2,4,5,6,7,8-hexahydrocyclohepta[c]pyrrol-1-yl)benzamide], the “change of sensitivity (dose-response, EC50) under partial PfBDP1 knockdown” value in assay [1] is on record as “increased sensitivity”. Moreover, the “parasite growth after treatment of ring-stage culture” value in the assay on P. falciparum NF54 [2] and in the assay on P. falciparum 3D7 [3] was “significantly reduced growth” throughout. The EC50 with P. falciparum NF54 [4] amounted to 14 µM; in assay [6], 20.9 µM; in the assay on P. falciparum 3D7 [7], 18.3 µM. Further, in assay [5] (treatment started at ring stage, normal trophozoites by 24 h), the “parasite development (morphology) after treatment from ring stage” value was “failed to undergo DNA replication and schizogony”. In assay [5] (treatment started at trophozoite stage, within 24 h, relative to DMSO control), the “parasite development after treatment from trophozoite stage” value is “block in egress and reinvasion”.
